The target of one experiment is JAK1 (Homo sapiens, UniProt P23458). Description: Biochemical potency on JAK1, TR-FRET (LANCE Ultra kinase assay). To be noted: ATP corresponding to Km; cell-free; read-out: JAK1 inhibitory activity (pIC50) (converted). Here is the method: (§1) The objective of this study was to assess the capability of compounds to inhibit all 4 JAK isoforms activity in a cell-free environment. Assay for JAK 1, JAK 2, JAK 3 and TYK2 were performed by Time-resolved fluorescence resonance energy transfer (TR-FRET) technology. It consists in the interaction of two labelled binding partners detected by the energy transfer from an excited donor to an acceptor dye and measurement of light emission by the acceptor dye. LANCE Ultra kinase assay was used. In presence of JAK 1, JAK 2, JAK 3 and TYK2 kinases and ATP (corresponding to Km), the ULight peptide substrate (LANCE Ulight-JAK-1 (Tyr1023) Peptide, Perkin Elmer, TRF0121) is phosphorylated. It is then captured by Eu-anti-phospho-substrate antibody (LANCE Eu-W1024 Anti-phosphotyrosine (PT66), Perkin Elmer, AD0069), which bring the Eu-chelate donor and ULight acceptor dyes into close proximity. Upon excitation at 320 nm, the Eu-chelate transfers its energy to the ULight dye, resulting in a fluorescent light emission at 665 nm.
Sequence of JAK1 (P23458 whole entry, canonical isoform): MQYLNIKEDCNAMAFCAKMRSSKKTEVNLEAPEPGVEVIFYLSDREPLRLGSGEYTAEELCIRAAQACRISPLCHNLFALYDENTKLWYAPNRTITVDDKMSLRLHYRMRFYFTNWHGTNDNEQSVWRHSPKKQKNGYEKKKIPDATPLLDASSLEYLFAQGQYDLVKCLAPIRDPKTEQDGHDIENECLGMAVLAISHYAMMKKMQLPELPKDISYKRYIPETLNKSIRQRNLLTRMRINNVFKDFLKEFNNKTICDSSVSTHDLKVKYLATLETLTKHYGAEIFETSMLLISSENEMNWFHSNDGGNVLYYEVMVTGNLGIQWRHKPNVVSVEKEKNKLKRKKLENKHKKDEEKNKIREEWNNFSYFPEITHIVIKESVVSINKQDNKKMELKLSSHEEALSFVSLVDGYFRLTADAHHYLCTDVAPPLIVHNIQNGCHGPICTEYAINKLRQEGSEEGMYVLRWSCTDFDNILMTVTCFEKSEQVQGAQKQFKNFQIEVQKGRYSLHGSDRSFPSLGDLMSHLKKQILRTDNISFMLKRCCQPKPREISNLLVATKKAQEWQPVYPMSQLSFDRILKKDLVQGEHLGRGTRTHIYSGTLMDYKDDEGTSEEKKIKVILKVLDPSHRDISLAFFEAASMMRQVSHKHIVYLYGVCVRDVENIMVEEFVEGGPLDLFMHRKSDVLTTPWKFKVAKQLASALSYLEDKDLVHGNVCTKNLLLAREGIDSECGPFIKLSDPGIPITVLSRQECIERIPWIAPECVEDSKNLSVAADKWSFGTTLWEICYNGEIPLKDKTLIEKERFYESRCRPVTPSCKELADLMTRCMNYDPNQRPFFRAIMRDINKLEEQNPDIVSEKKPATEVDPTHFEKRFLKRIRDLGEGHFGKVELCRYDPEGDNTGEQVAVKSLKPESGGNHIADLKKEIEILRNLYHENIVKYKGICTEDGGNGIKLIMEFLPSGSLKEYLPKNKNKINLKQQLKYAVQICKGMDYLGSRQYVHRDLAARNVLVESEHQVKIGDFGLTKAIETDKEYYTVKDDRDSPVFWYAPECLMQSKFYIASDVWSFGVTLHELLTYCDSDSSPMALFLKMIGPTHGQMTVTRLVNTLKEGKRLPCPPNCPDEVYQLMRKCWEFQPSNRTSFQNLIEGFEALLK
(§2) Serial dilutions of compounds in pure DMSO are prepared from 10 mM DMSO stock solutions. Compounds were tested in 384-well plate for 11 consecutive 5-fold dilutions starting from 20 μM highest concentration (20 μM-[…]). 200 nL of compound were transferred from mother plate to test plate by using Mosquito (TTP labtech). Assay was performed in 384-well Perkin Elmer test plate in 20 μL assay volume (kinase reaction) and 40 μL total volume (stopping reagent and antibody detection reagents). In 10 μL of substrate solution (peptide+ATP) 30/50/20/10 nM of peptide and 20/0.7/0.2/12 μM of ATP were added for JAK 1, JAK 2, JAK 3 and TYK2 respectively. 10 μL of enzyme solution was added to kinase reaction at these concentrations: 0.15/0.083/0.025/0.144 ng/μL of JAK 1, JAK 2, JAK 3 and TYK2 respectively. After shaking and 1.5 h of incubation at r.t., 20 μL of Stop (10 μL EDTA) and Detection mixture (10 μL Europium-anti-phospho antibody, final: 0.5 nM) were added. Reading was performed after 1 h of incubation on a En Vision 2104 reader (Perkin Elmer).
(§3) Calculation of IC50 data, curves and QC analysis was performed by using Excel tool and GraphPadPrism software, v9. Briefly, individual concentration-effect curves are generated by plotting the logarithm of the tested concentration of tested compounds (X) vs. corresponding percent inhibition values (Y) using least squares (ordinary) fit. Best fit IC50 values are calculated using Log (inhibitor) vs. normalized response—Variable slope equation, where Y=100/(1+10^((LogIC50−X)*HillSlope)). QC criteria parameters (Z′, S:B, R2, HillSlope) were checked for every IC50 curve. Calculation of IC50 data, curves and QC analysis were made using Excel tools and GraphPadPrism software. QC criteria parameters: Z′≥0.5, Hill Slope range 0.5 to 5, S:B>2.

For the next experiment, the target named is JAK2 (Homo sapiens, UniProt O60674). Description: Biochemical potency on JAK2, TR-FRET (LANCE Ultra kinase assay). Conditions: ATP corresponding to Km; cell-free; read-out: JAK2 inhibitory activity (pIC50) (converted). How it is done: as §1, §2, §3
Sequence of JAK2 (O60674 whole entry): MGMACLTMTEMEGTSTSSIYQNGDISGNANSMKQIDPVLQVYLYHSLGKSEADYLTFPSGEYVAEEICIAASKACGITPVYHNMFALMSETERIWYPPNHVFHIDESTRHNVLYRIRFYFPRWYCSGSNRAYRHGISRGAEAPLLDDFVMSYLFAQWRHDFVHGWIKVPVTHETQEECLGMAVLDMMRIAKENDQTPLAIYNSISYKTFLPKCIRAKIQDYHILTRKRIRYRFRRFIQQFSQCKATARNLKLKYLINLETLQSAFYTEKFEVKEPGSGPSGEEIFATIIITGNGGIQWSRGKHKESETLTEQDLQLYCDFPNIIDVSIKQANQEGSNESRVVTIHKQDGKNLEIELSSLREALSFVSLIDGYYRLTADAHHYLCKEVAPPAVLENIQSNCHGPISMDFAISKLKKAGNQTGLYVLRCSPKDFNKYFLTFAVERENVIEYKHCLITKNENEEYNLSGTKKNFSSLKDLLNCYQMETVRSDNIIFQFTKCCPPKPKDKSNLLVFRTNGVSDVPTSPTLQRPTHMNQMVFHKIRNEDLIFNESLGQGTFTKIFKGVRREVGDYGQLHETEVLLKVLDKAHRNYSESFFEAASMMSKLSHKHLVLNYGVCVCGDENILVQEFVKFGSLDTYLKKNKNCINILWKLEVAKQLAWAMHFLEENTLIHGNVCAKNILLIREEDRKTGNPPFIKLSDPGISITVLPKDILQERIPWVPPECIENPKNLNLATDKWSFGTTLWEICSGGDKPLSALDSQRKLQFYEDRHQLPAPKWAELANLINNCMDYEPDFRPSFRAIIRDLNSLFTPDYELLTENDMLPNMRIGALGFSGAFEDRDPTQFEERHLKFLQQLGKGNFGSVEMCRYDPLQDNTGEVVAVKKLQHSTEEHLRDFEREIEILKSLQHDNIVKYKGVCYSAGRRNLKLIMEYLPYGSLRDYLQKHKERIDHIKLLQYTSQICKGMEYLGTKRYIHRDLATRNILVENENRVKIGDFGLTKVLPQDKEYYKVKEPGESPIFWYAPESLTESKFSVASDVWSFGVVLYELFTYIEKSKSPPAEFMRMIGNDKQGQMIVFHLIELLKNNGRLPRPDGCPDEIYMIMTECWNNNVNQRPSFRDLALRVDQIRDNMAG
In general terms: Time-resolved FRET reads energy transfer from a long-lived donor to a nearby acceptor.

A further experiment addresses T1, JAK3 (Homo sapiens, UniProt P52333).
T1 sequence (P52333 1-1124): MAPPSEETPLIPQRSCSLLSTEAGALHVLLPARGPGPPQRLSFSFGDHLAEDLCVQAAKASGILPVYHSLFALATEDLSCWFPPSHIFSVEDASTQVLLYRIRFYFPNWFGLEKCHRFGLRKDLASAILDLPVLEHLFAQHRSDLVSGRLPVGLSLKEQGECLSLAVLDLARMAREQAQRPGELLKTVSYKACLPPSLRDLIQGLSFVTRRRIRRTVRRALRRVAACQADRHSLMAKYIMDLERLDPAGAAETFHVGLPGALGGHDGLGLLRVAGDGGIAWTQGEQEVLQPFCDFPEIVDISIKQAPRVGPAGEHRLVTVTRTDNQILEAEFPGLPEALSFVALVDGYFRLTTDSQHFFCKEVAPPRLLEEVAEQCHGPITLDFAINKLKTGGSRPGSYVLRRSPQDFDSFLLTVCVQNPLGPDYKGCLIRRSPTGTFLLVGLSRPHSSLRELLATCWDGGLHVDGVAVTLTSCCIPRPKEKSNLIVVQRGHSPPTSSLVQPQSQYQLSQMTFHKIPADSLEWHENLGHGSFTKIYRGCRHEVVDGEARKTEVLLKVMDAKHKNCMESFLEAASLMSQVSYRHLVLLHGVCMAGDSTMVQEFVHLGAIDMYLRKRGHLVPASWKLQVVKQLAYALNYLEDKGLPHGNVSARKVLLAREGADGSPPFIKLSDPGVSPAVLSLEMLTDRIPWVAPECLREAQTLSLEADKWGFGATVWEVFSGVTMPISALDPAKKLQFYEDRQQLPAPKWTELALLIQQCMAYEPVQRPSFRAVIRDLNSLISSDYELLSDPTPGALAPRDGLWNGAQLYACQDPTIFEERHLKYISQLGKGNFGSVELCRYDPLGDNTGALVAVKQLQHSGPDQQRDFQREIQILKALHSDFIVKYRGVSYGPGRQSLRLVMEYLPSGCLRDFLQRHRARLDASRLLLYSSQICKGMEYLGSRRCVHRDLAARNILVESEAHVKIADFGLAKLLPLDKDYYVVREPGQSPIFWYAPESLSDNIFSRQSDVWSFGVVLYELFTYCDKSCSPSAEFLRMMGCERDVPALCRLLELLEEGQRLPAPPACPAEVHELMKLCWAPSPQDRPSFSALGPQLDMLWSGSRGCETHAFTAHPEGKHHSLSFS
Description: Biochemical potency on JAK3, TR-FRET (LANCE Ultra kinase assay). Conditions: ATP corresponding to Km; cell-free; read-out: JAK3 inhibitory activity (pIC50) (converted). Here is the method:
as §1, §2, §3

Another experiment has as its target TYK2 (Homo sapiens, UniProt P29597). Description: Biochemical potency on Tyk2, TR-FRET (LANCE Ultra kinase assay). To be noted: ATP corresponding to Km; cell-free; read-out: TYK2 inhibitory activity (pIC50) (converted). How it is done: as §1, §2, §3
The test system of experiment [1] is pSTAT6 in BEAS-2B human cell line. The experiment in a line: Inhibition of IL-13 induced pSTAT6 in BEAS. Conditions: for IC50: Homo sapiens, BEAS-2B, 0.5 h, parent compound; for IC50 / pIC50 (BEAS) predicted acid metabolite: IL-13 trigger, 30 min; for Fold difference parent vs predicted acid metabolite: ratio=IC50 predicted acid metabolite/IC50 ester. The class given is cell-based. Here is the method: BEAS-2B human cell line was seeded (100.000 cells/well) and incubated for 48 h at 37° C., 5% CO2, 95% humidity. Compounds were added and incubated 30 min followed by IL-13 as trigger. After 30 min incubation, cells were lysed and pSTAT6 determined by Fastscan phospho-stat6 (Tyr641) sandwich ELISA kit (cell signaling). Inhibitors were tested at 11 consecutive 5-fold dilutions starting from 10 μM (10 μM-[…]) in duplicate. Calculation of IC50 data, curves and QC analysis were made using Excel tools and GraphPadPrism software. QC criteria parameters: Z′≥0.35, Hill Slope range 0.5 to 5, S:B>2.

Data on 14 molecules can be found in patent US20260337208A1, “HETEROCYCLIC DERIVATIVES AS JANUS KINASE INHIBITORS” (CHIESI FARMACEUTICI S.P.A., priority 2022, published 2026).

Sequence of TYK2 (P29597 whole entry): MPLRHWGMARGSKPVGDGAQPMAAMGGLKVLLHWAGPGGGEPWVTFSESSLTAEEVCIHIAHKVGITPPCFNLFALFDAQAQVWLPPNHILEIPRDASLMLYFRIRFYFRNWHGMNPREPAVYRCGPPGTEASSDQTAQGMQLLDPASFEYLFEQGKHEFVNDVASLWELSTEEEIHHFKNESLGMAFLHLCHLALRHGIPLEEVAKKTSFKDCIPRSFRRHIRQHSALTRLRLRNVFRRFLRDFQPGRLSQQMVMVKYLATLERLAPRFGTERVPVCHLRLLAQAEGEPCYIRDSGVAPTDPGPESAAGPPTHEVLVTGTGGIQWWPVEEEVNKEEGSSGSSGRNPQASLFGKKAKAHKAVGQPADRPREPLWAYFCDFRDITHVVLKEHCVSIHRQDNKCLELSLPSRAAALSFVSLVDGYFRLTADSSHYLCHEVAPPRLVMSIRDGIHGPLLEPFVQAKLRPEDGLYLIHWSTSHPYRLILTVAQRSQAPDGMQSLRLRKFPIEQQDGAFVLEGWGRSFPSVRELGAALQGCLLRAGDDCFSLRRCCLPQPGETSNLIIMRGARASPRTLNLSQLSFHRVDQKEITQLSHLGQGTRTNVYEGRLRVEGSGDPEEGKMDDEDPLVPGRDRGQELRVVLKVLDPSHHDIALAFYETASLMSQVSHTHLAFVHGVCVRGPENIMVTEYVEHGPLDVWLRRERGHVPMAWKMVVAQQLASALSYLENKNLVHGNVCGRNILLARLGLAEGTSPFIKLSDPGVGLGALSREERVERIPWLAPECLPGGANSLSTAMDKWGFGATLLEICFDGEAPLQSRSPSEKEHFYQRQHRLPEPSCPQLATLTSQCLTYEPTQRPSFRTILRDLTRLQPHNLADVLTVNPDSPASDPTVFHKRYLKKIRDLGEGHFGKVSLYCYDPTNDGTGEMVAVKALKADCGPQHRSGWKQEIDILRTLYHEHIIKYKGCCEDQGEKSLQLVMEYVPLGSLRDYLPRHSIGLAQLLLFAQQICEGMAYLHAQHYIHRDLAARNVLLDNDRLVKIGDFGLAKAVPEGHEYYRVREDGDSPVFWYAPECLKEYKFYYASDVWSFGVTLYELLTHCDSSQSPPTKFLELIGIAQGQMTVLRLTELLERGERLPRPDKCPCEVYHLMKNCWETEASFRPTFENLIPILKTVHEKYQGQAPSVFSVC

Consider `COc1cc2c(cc1-n1nc(C(=O)NCCN3CCC(CC(=O)OCC(C)(C)O)CC3)c3cnc(-c4cnn5cccnc45)cc31)OCCN2` [Example 48, 2-hydroxy-2-methylpropyl 2-(1-(2-(1-(6-methoxy-3,4-dihydro-2H-benzo[b][1,4]oxazin-7-yl)-6-(pyrazolo[1,5-a]pyrimidin-3-yl)-1H-pyrazolo[4,3-c]pyridine-3-carboxamido)ethyl)piperidin-4-yl)acetate], for which the IC50 was no more than 5.01 nM at JAK1; no more than 5.01 nM on JAK2; no more than 5.01 nM on JAK3; 5.01 to 50.1 nM at TYK2; 5.01 to 50.1 nM in experiment [1]. Also, the “Fold difference parent vs predicted acid metabolite” value in experiment [1] is “kkkk (ratio≥200)”. For the molecule `COc1cc2c(cc1-n1nc(C(=O)NCCN3CCC(C(=O)OCC4CCOCC4)CC3)c3cnc(-c4cnn5cccnc45)cc31)OCCN2` [Example 18, (tetrahydro-2H-pyran-4-yl)methyl 1-(2-(1-(6-methoxy-3,4-dihydro-2H-benzo[b][1,4]oxazin-7-yl)-6-(pyrazolo[1,5-a]pyrimidin-3-yl)-1H-pyrazolo[4,3-c]pyridine-3-carboxamido)ethyl)piperidine-4-carboxylate], the IC50 at JAK1 is no more than 5.01 nM; on JAK2 it was no more than 5.01 nM; on JAK3, no more than 5.01 nM; at TYK2, 5.01 to 50.1 nM; in experiment [1], no more than 5.01 nM. Besides, the “Fold difference parent vs predicted acid metabolite” value in experiment [1] is reported as “kkkk (ratio≥200)”.

For `COc1cc2c(cc1-n1nc(NC(=O)OCCN3CCC(C(=O)O)CC3)c3cnc(-c4cnn5cccnc45)cc31)SCCN2` [Example A5, reference compound], the “pIC50 (BEAS) predicted acid metabolite” value in experiment [1] is “§§ (7.3>pIC50≥6.3)”. Same read-out and setting: for `COc1cc2c(cc1-n1nc(C(=O)O)c3cnc(-c4cnn5cccnc45)cc31)OCCN2` [Example A9, 1-(6-Methoxy-3,4-dihydro-2H-benzo[b][1,4]oxazin-7-yl)-6-(pyrazolo[1,5-a]pyrimidin-3-yl)-1H-pyrazolo[4,3-c]pyridine-3-carboxylic acid, reference compound] the value was “§ (pIC50<6.3)”; for `COc1cc2c(cc1-n1nc(NC(=O)OCC(=O)O)c3cnc(-c4cnn5cccnc45)cc31)SCCN2` [Example A10, 2-(((1-(6-Methoxy-3,4-dihydro-2H-benzo[b][1,4]thiazin-7-yl)-6-(pyrazolo[1,5-a]pyrimidin-3-yl)-1H-pyrazolo[4,3-c]pyridin-3-yl)carbamoyl)oxy)acetic acid, reference compound], “§ (pIC50<6.3)”. Still for that read-out and setting: next, `COc1cc2c(cc1-n1nc(NC(=O)OCCN3CCC(C(=O)O)CC3)c3cnc(-c4cnn5cccnc45)cc31)OCCN2` [Example A8, reference compound]: “§ (pIC50<6.3)”; `COc1cc2c(cc1-n1nc(C(=O)NCCN3CCC(C(=O)O)CC3)c3cnc(-c4cnn5cccnc45)cc31)SCCN2` [Example A2, reference compound]: “§§ (7.3>pIC50≥6.3)”.

Take `COc1cc2c(cc1-n1nc(NC(=O)OCC(=O)O)c3cnc(-c4cnn5cccnc45)cc31)OCCN2` [Example A6, reference compound]: the “pIC50 (BEAS) predicted acid metabolite” value in experiment [1] is recorded as “§ (pIC50<6.3)”. The same measure, in the same setting: for `COc1cc2c(cc1-n1nc(C(=O)NCCN3CCC(CC(=O)O)CC3)c3cnc(-c4cnn5cccnc45)cc31)OCCN2` [Example A12, 2-(1-(2-(1-(6-methoxy-3,4-dihydro-2H-benzo[b][1,4]oxazin-7-yl)-6-(pyrazolo[1,5-a]pyrimidin-3-yl)-1H-pyrazolo[4,3-c]pyridine-3-carboxamido)ethyl)piperidin-4-yl)acetic acid, reference compound] the value was “§ (pIC50<6.3)”; for `COc1cc2c(cc1-n1nc(C(=O)NCCN3CCC(C(=O)O)CC3)c3cnc(Nc4ncc[nH]c4=O)cc31)OCCN2` [Example A11, reference compound], “§ (pIC50<6.3)”; for `COc1cc2c(cc1-n1nc(C(=O)NCCN3CC[C@H](C(=O)O)C3)c3cnc(-c4cnn5cccnc45)cc31)OCCN2` [Example A3, reference compound], “§ (pIC50<6.3)”. As for `COc1cc2c(cc1-n1nc(C(=O)NCCN3CC[C@@H](C(=O)O)C3)c3cnc(-c4cnn5cccnc45)cc31)OCCN2` [Example A4, reference compound], the “pIC50 (BEAS) predicted acid metabolite” value in experiment [1] was “§ (pIC50<6.3)”. Consider `COc1cc2c(cc1-n1nc(C(=O)NCCN3CCC(C(=O)O)CC3)c3cnc(-c4cnn5cccnc45)cc31)OCCN2` [Example A1, 1-(2-(1-(6-methoxy-3,4-dihydro-2H-benzo[b][1,4]oxazin-7-yl)-6-(pyrazolo[1,5-a]pyrimidin-3-yl)-1H-pyrazolo[4,3-c]pyridine-3-carboxamido)ethyl)piperidine-4-carboxylic acid, reference compound], for which the “pIC50 (BEAS) predicted acid metabolite” value in experiment [1] was “§ (pIC50<6.3)”. Consider `COc1cc2c(cc1-n1nc(NC(=O)O[C@H]3C[C@@H](C(=O)O)C3)c3cnc(-c4cnn5cccnc45)cc31)OCCN2` [Example A7, reference compound], for which, in experiment [1], the “pIC50 (BEAS) predicted acid metabolite” value was “§ (pIC50<6.3)”.
